Assay results from patent publication US20170008927A1, “ARTIFICIAL CATALYST SYSTEM SUBSTITUTABLE FOR IN VIVO ACYLATION FUNCTION” (The University of Tokyo, priority 2014, published 2017).

What was measured:
Type in all cases: cell-based, human
MCF7 cells [1] = experiment: Intracellular localization of FITC compounds, fluorescence microscope, MCF7 cells
Protocol: After compounds having FITC were added to the cells adhering on a glass coverslip, the cells were cultured, washed with PBS, fixed with 3.7% formaldehyde for 10 minutes, and washed with PBS twice.

MCF7 cells [2] = experiment: Protein acetylation levels in treated MCF7 cells (chromosome and cytoplasm fractions), western blotting; conditions: FIG. 6 comparison
Protocol: (§1) Hela cells and MCF7 cells were cultured using Dulbecco's modified Eagle's Medium (DMEM) media supplemented with 10% fetal bovine serum, 100 U/ml of penicillin, and 100 U/ml of streptomycin. The cells were cultured at 37° C. in the presence of 5% CO2.
(§2) The cell fractionation was carried out as follows. Approximately 10^6 cells were detached from a culture dish by a trypsin treatment. After washed with PBS, the cell pellets were suspended in a cooled, cell lysis buffer [50 mM Tris (pH=7.5), 300 mM NaCl, 0.3% Triton X-100, protease inhibitor cocktail, and 1 mM PMSF], and placed on ice for 30 minutes. After the centrifugation (4° C., 1500 rpm, 2 minutes), the supernatant was collected as a cytoplasm fraction. Meanwhile, the pellets were suspended in a cell lysis buffer containing 2 mM MgCl2 and Benzonase (Novagen, 71206), and placed on ice for 30 minutes. Then, 4 mM EDTA was added thereto to stop the reaction. After the centrifugation (4° C., 15000 rpm, 15 minutes), the supernatant was collected as a chromosome fraction.
(§3) Proteins were separated on a 4-20% SDS-PAGE gel, and transferred to a PVDF membrane, followed by blocking with 5% skim milk suspended in TBST for the reaction between the PVDF membrane and primary antibodies. The primary antibodies used were as follows. Anti-Histone H3 (acetyl K122) antibody (ab33309, Abcam), Acetylated-Lysine antibody (#9441, Cell Signaling), Anti-Histone H3 (acetyl K56) antibody (ab76307, Abcam), Anti-acetyl Histone H3 (Lys115) (#07-934, Millipore), Anti-P53 (DO-1) (sc-126, Santa cruz), Anti-Histone H3 (acetyl K9) antibody (ab4441, Abcam), Anti-Histone H3 (acetyl K14) antibody (ab52946, Abcam), Anti-Acetyl-Histone H4 (Ac-Lys16) (H9164, Sigma), Anti-Acetyl-Histone H4 (Ac-Lys5) (SAB4500307, Sigma), anti-acetyl tubulin (T6793, Sigma), Anti-p21/WAF1/Cip1 Antibody (05-655, Millipore), Anti-p27 (Kip1) (04-240, Millipore). […]

Hela cells = experiment: Protein acetylation levels in treated HeLa cells (chromosome and cytoplasm fractions), western blotting; conditions: FIG. 6 comparison
Protocol: as §1, §2, §3

hTERT RPE-1 cells = experiment: Protein acetylation levels in treated hTERT RPE-1 normal cells, western blotting; conditions: FIG. 6 comparison
Protocol: as §2
Proteins were separated on a 4-20% SDS-PAGE gel, and transferred to a PVDF membrane, followed by blocking with 5% skim milk suspended in TBST for the reaction between the PVDF membrane and primary antibodies. The primary antibodies used were as follows. Anti-Histone H3 (acetyl K122) antibody (ab33309, Abcam), Acetylated-Lysine antibody (#9441, Cell Signaling), Anti-Histone H3 (acetyl K56) antibody (ab76307, Abcam), Anti-acetyl Histone H3 (Lys115) (#07-934, Millipore), Anti-P53 (DO-1) (sc-126, Santa cruz), Anti-Histone H3 (acetyl K9) antibody (ab4441, Abcam), Anti-Histone H3 (acetyl K14) antibody (ab52946, Abcam), Anti-Acetyl-Histone H4 (Ac-Lys16) (H9164, Sigma), Anti-Acetyl-Histone H4 (Ac-Lys5) (SAB4500307, Sigma), anti-acetyl tubulin (T6793, Sigma), Anti-p21/WAF1/Cip1 Antibody (05-655, Millipore), Anti-p27 (Kip1) (04-240, Millipore). After washing with TBST, the PVDF membrane was treated with a chemilluminescent detection reagent Luminata Forte Western HRP Substrate (Millipore), and the detection was performed using ImageQuant LAS 4000 (GE healthcare life sciences).
MCF7 cells, HeLa cells, and hTERT RPE-1 (hereinafter, RPE-1) cells which are normal cells were treated with an HDAC inhibitor (SAHA). […] On the other hand, there was no change in the acetylation of K56 present in the H3 globular region (FIG. 6).

| Compound | intracellular localization (FITC signal) (MCF7 cells [1]) | acetylation of K56, H3 globular region (MCF7 cells [2]) | acetylations of lysines in the tail regions of histones H3 and H4 (MCF7 cells [2]) | tubulin acetylation in the cytoplasm (MCF7 cells [2]) | acetylation of K56, H3 globular region (Hela cells) | acetylations of lysines in the tail regions of histones H3 and H4 (Hela cells) | tubulin acetylation in the cytoplasm (Hela cells) | acetylation of K56, H3 globular region (hTERT RPE-1 cells) | acetylations of lysines in the tail regions of histones H3 and H4 (hTERT RPE-1 cells) | tubulin acetylation in the cytoplasm (hTERT RPE-1 cells) |
| --- | --- | --- | --- | --- | --- | --- | --- | --- | --- | --- |
| CC(=O)N(OCc1cn(CCOCCOCCOc2cc(C(=O)NCC(=O)N[C@@H](CCCNC(=N)N)C(=O)NC(CCCNC(=N)N)C(=O)N[C@@H](CCCNC(=N)N)C(=O)NC(CCCNC(=N)N)C(=O)N[C@@H](CCCNC(=N)N)C(=O)NC(CCCNC(=N)N)C(=O)N[C@@H](CCCNC(=N)N)C(=O)NC(CCCNC(=N)N)C(N)=O)cc(OCCOCCOCCn3cc(CON(C(C)=O)C(C)=O)nn3)c2OCCOCCOCCn2cc(CON(C(C)=O)C(C)=O)nn2)nn1)C(C)=O (stereo partly shown) [Compound 3NMD-8R] | successfully localized in the nucleus and the chromosomes | – | – | – | – | – | – | – | – | – |
| O=C(CCCCCCC(=O)Nc1ccccc1)NO [SAHA] | – | no change | significantly enhanced | significantly enhanced | no change | significantly enhanced | significantly enhanced | no change | significantly enhanced | significantly enhanced |
